Measurements taken from ChEMBL document CHEMBL1124479, “N-[(arylmethoxy)phenyl] and N-[(arylmethoxy)naphthyl] sulfonamides: potent orally active leukotriene D4 antagonists of novel structure” (J Med Chem, 1989).

system: Cavia porcellus; assay: Inhibition of Leukotriene D4 induced bronchoconstriction when compound was administered intraduodenally at a dose of 25 mg/kg in guinea pig; details: not given

Compared with `COC(=O)CS(=O)(=O)Nc1cccc(OCc2ccc3ccccc3n2)c1`, `O=C(O)CS(=O)(=O)Nc1cccc(OCc2ccc3ccccc3n2)c1` is lower in inhibition: 69% for the first, 58% for the second.

Compared with `O=S(=O)(Nc1ccccc1OCc1ccc2ccccc2n1)C(F)(F)F`, `O=S(=O)(Nc1ccccc1SCc1ccc2ccccc2n1)C(F)(F)F` is lower in inhibition: 24% for the first, -5% for the second.

Compared with `O=S(=O)(Nc1cccc(Oc2cccc3cccnc23)c1)C(F)(F)F`, `O=S(=O)(Nc1cccc(OCc2csc3ccccc23)c1)C(F)(F)F` is lower in inhibition: 50% for the first, 13% for the second.

First: O=S(=O)(Nc1cccc(OCc2ccc3ccccc3n2)c1)c1ccc(C(F)(F)F)cc1
Second: O=C(O)c1ccc(S(=O)(=O)Nc2cccc(OCc3ccc4ccccc4n3)c2)cc1
The inhibition of the first is higher: 46% for the first, 0% for the second.

First: CS(=O)(=O)Nc1ccc([N+](=O)[O-])cc1OCc1ccc2ccccc2n1
Second: O=S(=O)(NCCc1cccc(OCc2ccc3ccccc3n2)c1)C(F)(F)F
The inhibition of the first is higher: 28% for the first, 14% for the second.

system: Cavia porcellus; assay: Inhibition of Leukotriene D4 induced bronchoconstriction in guinea pig by 50 mg/kg i.d.; details: at 50 mg/kg

Going from `CCCCS(=O)(=O)Nc1cccc(OCc2ccc3ccccc3n2)c1` to `CCCCS(=O)(=O)Nc1ccc2ccc(OCc3ccc4ccccc4n3)cc2c1`, the inhibition rises from 30% to 51%.

First: CCS(=O)(=O)N(C)c1ccc2ccc(OCc3ccc4ccccc4n3)cc2c1
Second: CS(=O)(=O)Nc1ccc2ccc(OCc3ccc4ccccc4n3)cc2c1
The inhibition of the first is lower: 37% for the first, 68% for the second.

Going from `CCS(=O)(=O)Nc1cccc2ccc(OCc3ccc4ccccc4n3)cc12` to `CCS(=O)(=O)Nc1ccc2ccc(OCc3ccc4ccccc4c3)cc2c1`, the inhibition rises from -6% to 28%.

First: CCCS(=O)(=O)N(c1cccc(OCc2nc3ccccc3s2)c1)S(=O)(=O)CCC
Second: CCCS(=O)(=O)N(c1cccc(OCc2ccc3ccccc3n2)c1)S(=O)(=O)CCC
The inhibition of the first is higher: 38% for the first, 4% for the second.

First: CCS(=O)(=O)Nc1ccc2ccc(OCc3nc4ccccc4s3)cc2c1
Second: CCS(=O)(=O)Nc1cccc(OCc2ccc3ccccc3c2)c1
The inhibition of the first is lower: 27% for the first, 42% for the second.
